Reference: publication PMC11325084, “Pharmacokinetics and tissue distribution of LN002, a new compound alternative oxidase inhibitor against Cryptosporidium in rats” (Frontiers in Pharmacology, 2024)
Where two headings read alike, the source gives them in different places.

How the values were obtained:
[1] = Pharmacokinetics of LN002 in rat plasma after single intravenous injection or oral gavage; type: in vivo, Sprague–Dawley (SD) rats; conditions: rats; for AUC(0-t): read-out: AUC0–24 h
Experimental: A total of 24 SD rats, half for each sex, were randomly distributed into four groups and used in the plasma PK study. Heparin sodium was used to prevent blood clotting. Groups 1, 2, and 3 were single-dose oral administration groups, and the administered doses were 100, 200, and 400 mg/kg, respectively. The fourth group was a single-dose group, in which the subjects received 1 mg/kg LN002 via tail vein intravenous injection (In the oral administration group, the drugs were dissolved in 0.5% sodium carboxymethylcellulose, whereas those in the intravenous injection group were dissolved in N,N-dimethylformamide). After administration for each group, approximately 200–300 μL of plasma samples were collected from the tail vein at predefined times (0.167, 0.5, 0.75, 1, 2, 3, 4, 6, 8, 12, and 24 h) ([Song et al., 2021a]). Subsequently, these samples were then placed in centrifuge tubes containing heparin sodium, subjected to centrifugation at 5000 rpm for 10 min at 4°C, and the resulting supernatant was collected and stored at −20°C until further analysis. An aliquot of 100 µL of rat plasma was transferred into a 2 mL Eppendorf (EP) tube and precipitated with 300 µL of acetonitrile. The mixture was vortexed for 1 min, then centrifuged at 13,000 rpm at 4°C for 10 min, and passed through a 0.22 μm filter membrane. Final analysis was conducted by injecting 20 µL of supernatant into HPLC. A Shimadzu LC-20A system (Shimadzu Technologies, Kyoto, Japan) equipped with a LabSolutions system (version 5.1) system was used for HPLC analysis. The separation process utilized an ARD-C18 column (250 mm × 4.6 mm, 5 µm) (Zhongpu Technology Co., Ltd., Fuzhou, China). The analytes were detected using a UV detector at 333 nm. The chromatographic conditions used an isocratic mobile phase that combines methanol (solvent A) and deionized water (solvent B) (75:25, v/v), and they were propelled through the column at a constant flow rate of 1 mL/min, ensuring uniform separation. The injection volume was 20 μL. The temperature of the column was set to 40°C. Pharmacokinetic data were obtained via non-compartmental PK analysis of total concentration versus time profiles for plasma using Phoenix WinNonlin 8.2 (Certara, L.P., Princeton, NJ, United States). Statistical analysis and graphing were undertaken using GraphPad Prism 9.5 for Windows (GraphPad Software, Inc., La Jolla, CA, United States).

[2] = Stability of LN002 in rat plasma, liver homogenate and intestinal contents under storage conditions; type: in vitro ADME; design: Short-term stability at room temperature (6 h), measured concentration / Freeze and thaw stability at −20°C/Room temperature (3 cycles), measured concentration / Auto-sampler stability (12 h), measured concentration / Long-term stability at −20°C (30 days), measured concentration: unit not given here; conditions: for Auto-sampler stability (12 h), measured concentration / Freeze and thaw stability at −20°C/Room temperature (3 cycles), measured concentration / Long-term stability at −20°C (30 days), measured concentration / Short-term stability at room temperature (6 h), measured concentration: n = 6, mean ± SD
Experimental: (§1) By investigating the low, middle, and high-concentration stability of rat plasma, the liver and intestinal contents in six replicates at different storage conditions, autosampler, short-term, freeze and thaw, long-term stability, and stock solution stability evaluations were conducted.

[3] = Stability of LN002 stock solution; type: physicochemical; conditions: for Stock solution stability, measured concentration: nominal concentration 1,000 ng/mL, n = 6, mean ± SD
Experimental: as §1, with “LN002 was dissolved in N,N-dimethylformamide, then mixed to make a concentration of 1 mg/mL standard solution, and stored at −20°C. By” for “By”

[4] = both sexes, Sprague-Dawley, rat, iv, plasma, i.v. 1 mg/kg, n = 6, mean ± SD
[5] = both sexes, Sprague-Dawley, rat, plasma, iv, 1 mg/kg, i.v. 1 mg/kg, n = 6, mean ± SD
[6] = both sexes, Sprague-Dawley, rat, plasma, po, 100 mg/kg, oral 100 mg/kg, n = 6, mean ± SD
[7] = both sexes, Sprague-Dawley, rat, plasma, po, 200 mg/kg, oral 200 mg/kg, n = 6, mean ± SD
[8] = both sexes, Sprague-Dawley, rat, plasma, po, 400 mg/kg, oral 400 mg/kg, n = 6, mean ± SD
[9] = both sexes, Sprague-Dawley, rat, plasma, po, 400 mg/kg, oral single dose, range across 100, 200 and 400 mg/kg
[10] = both sexes, Sprague-Dawley, rat, plasma, oral 100 mg/kg, n = 6, mean ± SD
[11] = both sexes, Sprague-Dawley, rat, plasma, oral 200 mg/kg, n = 6, mean ± SD
[12] = both sexes, Sprague-Dawley, rat, plasma, oral 400 mg/kg, n = 6, mean ± SD
[13] = intestinal contents, nominal concentration 50 ng/g
[14] = intestinal contents, nominal concentration 200 ng/g
[15] = intestinal contents, nominal concentration 1,000 ng/g
[16] = liver, nominal concentration 50 ng/g
[17] = liver, nominal concentration 200 ng/g
[18] = liver, nominal concentration 1,000 ng/g
[19] = plasma, nominal concentration 50 ng/mL
[20] = plasma, nominal concentration 200 ng/mL
[21] = plasma, nominal concentration 1,000 ng/mL

Tmax ([1]; both sexes, Sprague-Dawley, rat, iv, plasma, i.v. 1 mg/kg, n = 6): 0.75 h | AUC(0-inf) [1, 4]: 8650 ± 1940 ng·h/mL | clearance [1, 4]: 1.83 mL/min/kg | Vd ([1]; both sexes, Sprague-Dawley, rat, iv, plasma, i.v. 1 mg/kg, n = 6, mean ± SD, read-out: Vd): 1.69 ± 0.44 L/kg | Cmax [1, 5]: 2940 ± 2160 ng/mL | half-life [1, 5]: 10.9 ± 6.56 h | AUC(0-t) ([1]; both sexes, Sprague-Dawley, rat, plasma, iv, 1 mg/kg, plasma, i.v. 1 mg/kg, n = 6, mean ± SD): 7020 ± 1520 ng·h/mL | Cmax [1, 6]: 850 ± 190 ng/mL | half-life [1, 6]: 18 ± 5.82 h | bioavailability ([1]; both sexes, Sprague-Dawley, rat, plasma, po, 100 mg/kg, oral 100 mg/kg, read-out: F (oral bioavailability)): 0.32% | AUC(0-t) ([1]; both sexes, Sprague-Dawley, rat, plasma, po, 100 mg/kg, plasma, oral 100 mg/kg, n = 6, mean ± SD): 2280 ± 227 ng·h/mL | CL/F ([1]; both sexes, Sprague-Dawley, rat, plasma, po, 100 mg/kg, plasma, oral 100 mg/kg, n = 6, mean ± SD, read-out: Cl (Cl/F in text) (converted)): 433 mL/min/kg | Cmax [1, 7]: 1670 ± 106 ng/mL | half-life [1, 7]: 18 ± 14.8 h | bioavailability ([1]; both sexes, Sprague-Dawley, rat, plasma, po, 200 mg/kg, oral 200 mg/kg, read-out: F (oral bioavailability)): 0.29% | AUC(0-t) ([1]; both sexes, Sprague-Dawley, rat, plasma, po, 200 mg/kg, plasma, oral 200 mg/kg, n = 6, mean ± SD): 4070 ± 779 ng·h/mL | CL/F ([1]; both sexes, Sprague-Dawley, rat, plasma, po, 200 mg/kg, plasma, oral 200 mg/kg, n = 6, mean ± SD, read-out: Cl (Cl/F in text) (converted)): 524 mL/min/kg | Cmax [1, 8]: 4030 ± 410 ng/mL | half-life [1, 8]: 18.8 ± 11.4 h | bioavailability ([1]; both sexes, Sprague-Dawley, rat, plasma, po, 400 mg/kg, oral 400 mg/kg, read-out: F (oral bioavailability)): 0.27% | Cmax [1, 9]: 850 to 4030 ng/mL | half-life [1, 9]: 18 to 18.8 h | bioavailability ([1]; both sexes, Sprague-Dawley, rat, plasma, po, 400 mg/kg, oral single dose, range across 100, 200 and 400 mg/kg, read-out: F): 0.27 to 0.32% | AUC(0-t) ([1]; both sexes, Sprague-Dawley, rat, plasma, po, 400 mg/kg, plasma, oral 400 mg/kg, n = 6, mean ± SD): 7500 ± 507 ng·h/mL | CL/F ([1]; both sexes, Sprague-Dawley, rat, plasma, po, 400 mg/kg, plasma, oral 400 mg/kg, n = 6, mean ± SD, read-out: Cl (Cl/F in text) (converted)): 650 mL/min/kg | AUC(0-t) ([1]; both sexes, Sprague-Dawley, rat, plasma, po, 400 mg/kg, plasma, oral single dose, range across 100, 200 and 400 mg/kg): 2280 to 7500 ng·h/mL | CL/F ([1]; both sexes, Sprague-Dawley, rat, plasma, po, 400 mg/kg, plasma, oral single dose, range across 100, 200 and 400 mg/kg, read-out: Cl/F): 433 to 650 mL/min/kg | Tmax ([1]; both sexes, Sprague-Dawley, rat, plasma, oral 100 mg/kg, n = 6): 1 h | AUC(0-inf) [1, 10]: 3530 ± 734 ng·h/mL | Vd/F [1, 10]: 582 ± 270 L/kg | Tmax ([1]; both sexes, Sprague-Dawley, rat, plasma, oral 200 mg/kg, n = 6): 1 h | AUC(0-inf) [1, 11]: 6030 ± 2310 ng·h/mL | Vd/F [1, 11]: 764 ± 314 L/kg | AUC(0-inf) [1, 12]: 11400 ng·h/mL | Vd/F [1, 12]: 869 ± 279 L/kg | Tmax ([1]; both sexes, Sprague-Dawley, rat, plasma, oral single dose, across 100, 200 and 400 mg/kg): 1 h | PK behaviour over dose (in words) ([1]; oral 100, 200 and 400 mg/kg): linear | Vd ([1]; plasma, oral single dose, range across 100, 200 and 400 mg/kg): 581.54 to 869.21 L/kg | Auto-sampler stability (12 h), measured concentration [2, 13]: 0.048 ± 0.001 | Freeze and thaw stability at −20°C/Room temperature (3 cycles), measured concentration [2, 13]: 0.050 ± 0.002 | Long-term stability at −20°C (30 days), measured concentration [2, 13]: 0.048 ± 0.002 | Short-term stability at room temperature (6 h), measured concentration [2, 13]: 0.051 ± 0.002 | Auto-sampler stability (12 h), measured concentration [2, 14]: 0.191 ± 0.011 | Freeze and thaw stability at −20°C/Room temperature (3 cycles), measured concentration [2, 14]: 0.192 ± 0.009 | Long-term stability at −20°C (30 days), measured concentration [2, 14]: 0.202 ± 0.003 | Short-term stability at room temperature (6 h), measured concentration [2, 14]: 0.204 ± 0.007 | Auto-sampler stability (12 h), measured concentration [2, 15]: 1.001 ± 0.034 | Freeze and thaw stability at −20°C/Room temperature (3 cycles), measured concentration [2, 15]: 0.978 ± 0.053 | Long-term stability at −20°C (30 days), measured concentration [2, 15]: 0.997 ± 0.012 | Short-term stability at room temperature (6 h), measured concentration [2, 15]: 0.976 ± 0.042 | Auto-sampler stability (12 h), measured concentration [2, 16]: 0.049 ± 0.002 | Freeze and thaw stability at −20°C/Room temperature (3 cycles), measured concentration [2, 16]: 0.051 ± 0.002 | Long-term stability at −20°C (30 days), measured concentration [2, 16]: 0.051 ± 0.002 | Short-term stability at room temperature (6 h), measured concentration [2, 16]: 0.050 ± 0.003 | Auto-sampler stability (12 h), measured concentration [2, 17]: 0.198 ± 0.007 | Freeze and thaw stability at −20°C/Room temperature (3 cycles), measured concentration [2, 17]: 0.205 ± 0.005 | Long-term stability at −20°C (30 days), measured concentration [2, 17]: 0.196 ± 0.007 | Short-term stability at room temperature (6 h), measured concentration [2, 17]: 0.197 ± 0.009 | Auto-sampler stability (12 h), measured concentration [2, 18]: 1.065 ± 0.036 | Freeze and thaw stability at −20°C/Room temperature (3 cycles), measured concentration [2, 18]: 0.985 ± 0.057 | Long-term stability at −20°C (30 days), measured concentration [2, 18]: 0.995 ± 0.064 | Short-term stability at room temperature (6 h), measured concentration [2, 18]: 0.984 ± 0.042 | Auto-sampler stability (12 h), measured concentration [2, 19]: 0.050 ± 0.002 | Freeze and thaw stability at −20°C/Room temperature (3 cycles), measured concentration [2, 19]: 0.048 ± 0.002 | Long-term stability at −20°C (30 days), measured concentration [2, 19]: 0.052 ± 0.002 | Short-term stability at room temperature (6 h), measured concentration [2, 19]: 0.051 ± 0.003 | Auto-sampler stability (12 h), measured concentration [2, 20]: 0.204 ± 0.014 | Freeze and thaw stability at −20°C/Room temperature (3 cycles), measured concentration [2, 20]: 0.197 ± 0.014 | Long-term stability at −20°C (30 days), measured concentration [2, 20]: 0.203 ± 0.006 | Short-term stability at room temperature (6 h), measured concentration [2, 20]: 0.210 ± 0.013 | Auto-sampler stability (12 h), measured concentration [2, 21]: 0.992 ± 0.061 | Freeze and thaw stability at −20°C/Room temperature (3 cycles), measured concentration [2, 21]: 1.028 ± 0.035 | Long-term stability at −20°C (30 days), measured concentration [2, 21]: 1.035 ± 0.080 | Short-term stability at room temperature (6 h), measured concentration [2, 21]: 0.987 ± 0.032 | Stability in plasma and tissue homogenate (in words) ([2]; rat plasma, liver, intestinal contents, short-term, freeze and thaw, auto-sampler, long-term): stable | Stock solution stability, measured concentration ([3]; 15 d): 0.941 ± 0.091 | Stock solution stability, measured concentration ([3]; 30 d): 0.924 ± 0.051 | Degradation of stock solution (in words) ([3]; stock solution, 15 d and 30 d): no appreciable degradation
SMILES: N#C/C(=C\c1c[nH]nc1-c1ccccc1)c1nn(-c2ccccc2)c(N)c1C#N [LN002, 5-amino-3-[1-cyano-2-(3-phenyl-4-vinopyrazole))-1-phenyl-4-vinopyrazole]
